These results are taken from ChEMBL document CHEMBL2150973, “Dual inhibitors for aspartic proteases HIV-1 PR and renin: advancements in AIDS-hypertension-diabetes linkage via molecular dynamics, inhibition assays, and binding free energy calculations” (J Med Chem, 2012).

Structures are written as SMILES.

The experiment concerns Human immunodeficiency virus 1. Description: microbe, parasite or virus in culture.

As usually defined, the IC90 is the point of the concentration-response curve where the effect stands at 90%. Read a low IC90 as an effect from little substance. As to `CC(C)CN(C[C@@H](O)[C@H](Cc1ccccc1)NC(=O)O[C@H]1CO[C@H]2OCC[C@H]21)S(=O)(=O)c1ccc(N)cc1`, it took 4.1 nM to reach the 90% level (IC90).
